From patent US11981658B2, “Substituted aminopyridine compounds as EGFR inhibitors” (YUHAN CORPORATION, priority 2021, dated 2024)
Where two headings read alike, the source gives them in different places.

Experiments:
[1] = target: EGFR wildtype (WT) (Homo sapiens, UniProt P00533); experiment: Biochemical EGFR kinase inhibition assay (Lance Ultra TR-FRET), wildtype
Procedure, shortened: (§1)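 Step 1: compound in kinase buffer, 0.003–10 μM. Step 2: kinase reaction 1 h at room temperature. Step 4: TR-FRET read at 615/665 nm; IC50 calculated.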

[2] = target: EGFR Del19/C797S (Homo sapiens, UniProt P00533, C797S/DEL746-750); experiment: Biochemical EGFR kinase inhibition assay (Lance Ultra TR-FRET), double mutant del19/C797S
Procedure, shortened: as §1

[3] = target: EGFR L858R/C797S (Homo sapiens, UniProt P00533, C797S/L858R); experiment: Biochemical EGFR kinase inhibition assay (Lance Ultra TR-FRET), double mutant L858R/C797S
Procedure, shortened: as §1

[4] = target: EGFR Del19/T790M/C797S (Homo sapiens, UniProt P00533, C797S/DEL746-750/T790M); experiment: Biochemical EGFR kinase inhibition assay (Lance Ultra TR-FRET), triple mutant del19/T790M/C797S
Procedure, shortened: as §1

[5] = target: EGFR L858R/T790M/C797S (Homo sapiens, UniProt P00533, C797S/L858R/T790M); experiment: Biochemical EGFR kinase inhibition assay (Lance Ultra TR-FRET), triple mutant L858R/T790M/C797S
Procedure, shortened: as §1

[6] = Km ATP, read-out: IC50 WT (nM), Km ATP
[7] = IC50 Del19/C797S (nM), 100 μM ATP
[8] = Km ATP, read-out: IC50 Del19/C797S (nM), Km ATP
[9] = IC50 L858R/C797S (nM), 100 μM ATP
[10] = Km ATP, read-out: IC50 L858R/C797S (nM), Km ATP
[11] = IC50 Del19/T790M/C797S (nM), 100 μM ATP
[12] = Km ATP, read-out: IC50 Del19/T790M/C797S (nM), Km ATP
[13] = IC50 L858R/T790M/C797S (nM), 100 μM ATP
[14] = Km ATP, read-out: IC50 L858R/T790M/C797S (nM), Km ATP

EGFR L858R/T790M/C797S, sequence (P00533 25-1210 T790M/C797S/L858R): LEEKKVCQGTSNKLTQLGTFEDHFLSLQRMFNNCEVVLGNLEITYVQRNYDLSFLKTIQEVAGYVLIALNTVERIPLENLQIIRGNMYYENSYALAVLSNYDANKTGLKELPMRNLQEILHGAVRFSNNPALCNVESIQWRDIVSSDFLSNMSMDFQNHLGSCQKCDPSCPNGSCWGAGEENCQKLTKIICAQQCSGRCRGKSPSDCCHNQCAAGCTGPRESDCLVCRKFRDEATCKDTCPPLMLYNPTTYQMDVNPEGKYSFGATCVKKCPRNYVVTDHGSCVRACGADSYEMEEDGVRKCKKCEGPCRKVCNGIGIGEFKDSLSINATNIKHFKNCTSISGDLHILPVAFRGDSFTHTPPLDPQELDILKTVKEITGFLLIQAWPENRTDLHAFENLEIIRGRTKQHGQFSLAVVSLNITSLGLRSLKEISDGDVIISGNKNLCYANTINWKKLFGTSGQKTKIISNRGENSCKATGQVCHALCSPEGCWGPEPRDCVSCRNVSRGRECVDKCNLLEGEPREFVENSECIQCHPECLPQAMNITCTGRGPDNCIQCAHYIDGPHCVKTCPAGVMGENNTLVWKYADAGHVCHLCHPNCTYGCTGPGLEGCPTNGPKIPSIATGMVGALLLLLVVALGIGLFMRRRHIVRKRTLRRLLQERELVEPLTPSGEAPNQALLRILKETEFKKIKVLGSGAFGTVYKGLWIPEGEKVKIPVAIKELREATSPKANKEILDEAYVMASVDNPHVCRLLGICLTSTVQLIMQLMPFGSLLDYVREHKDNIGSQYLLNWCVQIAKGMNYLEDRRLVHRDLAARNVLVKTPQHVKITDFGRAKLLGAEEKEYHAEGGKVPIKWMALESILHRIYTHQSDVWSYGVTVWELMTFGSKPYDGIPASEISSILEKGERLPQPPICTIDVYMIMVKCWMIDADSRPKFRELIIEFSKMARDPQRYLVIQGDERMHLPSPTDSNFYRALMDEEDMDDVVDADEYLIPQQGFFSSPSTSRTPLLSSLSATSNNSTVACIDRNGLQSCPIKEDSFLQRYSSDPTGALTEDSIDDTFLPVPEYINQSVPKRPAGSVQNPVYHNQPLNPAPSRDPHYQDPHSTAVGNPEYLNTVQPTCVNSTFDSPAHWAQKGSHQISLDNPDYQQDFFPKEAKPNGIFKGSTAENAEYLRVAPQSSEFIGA
EGFR Del19/T790M/C797S, sequence (P00533 with tags, fused parts or gaps DEL746-750/T790M/C797S): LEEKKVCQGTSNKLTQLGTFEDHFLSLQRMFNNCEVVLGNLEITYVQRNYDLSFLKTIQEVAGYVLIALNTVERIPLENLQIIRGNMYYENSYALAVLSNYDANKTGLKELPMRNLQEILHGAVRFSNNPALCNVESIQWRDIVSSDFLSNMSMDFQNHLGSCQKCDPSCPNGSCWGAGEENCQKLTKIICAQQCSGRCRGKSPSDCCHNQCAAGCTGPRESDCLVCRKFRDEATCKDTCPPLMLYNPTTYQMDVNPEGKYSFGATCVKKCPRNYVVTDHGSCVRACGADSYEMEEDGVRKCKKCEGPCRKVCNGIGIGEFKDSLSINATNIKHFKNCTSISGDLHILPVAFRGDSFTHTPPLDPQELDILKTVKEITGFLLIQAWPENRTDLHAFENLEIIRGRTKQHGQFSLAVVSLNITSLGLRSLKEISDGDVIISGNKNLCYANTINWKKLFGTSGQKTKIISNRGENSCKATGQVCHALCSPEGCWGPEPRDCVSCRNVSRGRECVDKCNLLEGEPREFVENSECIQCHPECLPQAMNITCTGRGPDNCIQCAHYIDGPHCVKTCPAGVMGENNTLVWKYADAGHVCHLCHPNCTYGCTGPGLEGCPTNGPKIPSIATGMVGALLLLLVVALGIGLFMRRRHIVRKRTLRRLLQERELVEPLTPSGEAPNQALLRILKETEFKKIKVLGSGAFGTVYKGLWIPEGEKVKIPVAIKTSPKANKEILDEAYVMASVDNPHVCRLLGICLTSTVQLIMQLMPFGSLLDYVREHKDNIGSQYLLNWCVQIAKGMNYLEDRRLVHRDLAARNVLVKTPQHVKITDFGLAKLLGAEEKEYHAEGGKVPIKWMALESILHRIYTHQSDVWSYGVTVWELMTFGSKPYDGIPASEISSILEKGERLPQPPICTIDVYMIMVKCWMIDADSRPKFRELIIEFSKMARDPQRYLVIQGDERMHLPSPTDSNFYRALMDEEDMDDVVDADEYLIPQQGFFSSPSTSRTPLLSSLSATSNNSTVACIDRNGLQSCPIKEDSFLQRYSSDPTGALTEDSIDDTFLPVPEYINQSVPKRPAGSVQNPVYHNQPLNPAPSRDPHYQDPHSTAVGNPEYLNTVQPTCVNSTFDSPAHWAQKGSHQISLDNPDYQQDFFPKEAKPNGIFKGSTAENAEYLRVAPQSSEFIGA
EGFR L858R/C797S, sequence (P00533 25-1210 C797S/L858R): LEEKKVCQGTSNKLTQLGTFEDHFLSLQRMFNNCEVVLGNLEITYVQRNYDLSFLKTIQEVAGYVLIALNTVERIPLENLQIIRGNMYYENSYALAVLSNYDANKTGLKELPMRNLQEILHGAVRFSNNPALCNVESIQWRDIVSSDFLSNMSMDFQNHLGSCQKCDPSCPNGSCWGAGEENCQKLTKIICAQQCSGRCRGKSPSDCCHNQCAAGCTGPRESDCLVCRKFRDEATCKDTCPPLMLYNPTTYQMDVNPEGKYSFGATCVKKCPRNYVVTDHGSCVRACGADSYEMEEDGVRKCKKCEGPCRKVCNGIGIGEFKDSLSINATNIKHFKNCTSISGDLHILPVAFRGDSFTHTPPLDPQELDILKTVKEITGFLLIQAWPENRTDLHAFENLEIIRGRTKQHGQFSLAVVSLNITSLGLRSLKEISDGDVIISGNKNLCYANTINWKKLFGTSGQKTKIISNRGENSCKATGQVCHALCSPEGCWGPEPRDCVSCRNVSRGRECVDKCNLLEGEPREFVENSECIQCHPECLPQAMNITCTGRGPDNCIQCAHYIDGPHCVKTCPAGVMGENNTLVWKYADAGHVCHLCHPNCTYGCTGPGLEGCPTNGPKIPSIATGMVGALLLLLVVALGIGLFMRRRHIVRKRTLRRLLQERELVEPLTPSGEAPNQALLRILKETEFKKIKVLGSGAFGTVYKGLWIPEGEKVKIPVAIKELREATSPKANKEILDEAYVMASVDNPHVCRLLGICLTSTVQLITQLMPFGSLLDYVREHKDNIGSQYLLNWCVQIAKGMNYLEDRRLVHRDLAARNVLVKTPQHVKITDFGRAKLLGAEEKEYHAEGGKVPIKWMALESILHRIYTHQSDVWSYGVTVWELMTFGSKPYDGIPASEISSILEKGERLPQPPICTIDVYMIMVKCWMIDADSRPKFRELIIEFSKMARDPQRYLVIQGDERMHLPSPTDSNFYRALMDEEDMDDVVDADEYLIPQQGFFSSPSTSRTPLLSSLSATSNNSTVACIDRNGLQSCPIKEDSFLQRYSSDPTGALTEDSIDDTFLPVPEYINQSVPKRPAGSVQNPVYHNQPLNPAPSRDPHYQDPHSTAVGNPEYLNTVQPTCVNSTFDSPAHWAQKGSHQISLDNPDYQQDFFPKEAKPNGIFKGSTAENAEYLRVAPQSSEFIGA
EGFR wildtype (WT), sequence (P00533 25-1210): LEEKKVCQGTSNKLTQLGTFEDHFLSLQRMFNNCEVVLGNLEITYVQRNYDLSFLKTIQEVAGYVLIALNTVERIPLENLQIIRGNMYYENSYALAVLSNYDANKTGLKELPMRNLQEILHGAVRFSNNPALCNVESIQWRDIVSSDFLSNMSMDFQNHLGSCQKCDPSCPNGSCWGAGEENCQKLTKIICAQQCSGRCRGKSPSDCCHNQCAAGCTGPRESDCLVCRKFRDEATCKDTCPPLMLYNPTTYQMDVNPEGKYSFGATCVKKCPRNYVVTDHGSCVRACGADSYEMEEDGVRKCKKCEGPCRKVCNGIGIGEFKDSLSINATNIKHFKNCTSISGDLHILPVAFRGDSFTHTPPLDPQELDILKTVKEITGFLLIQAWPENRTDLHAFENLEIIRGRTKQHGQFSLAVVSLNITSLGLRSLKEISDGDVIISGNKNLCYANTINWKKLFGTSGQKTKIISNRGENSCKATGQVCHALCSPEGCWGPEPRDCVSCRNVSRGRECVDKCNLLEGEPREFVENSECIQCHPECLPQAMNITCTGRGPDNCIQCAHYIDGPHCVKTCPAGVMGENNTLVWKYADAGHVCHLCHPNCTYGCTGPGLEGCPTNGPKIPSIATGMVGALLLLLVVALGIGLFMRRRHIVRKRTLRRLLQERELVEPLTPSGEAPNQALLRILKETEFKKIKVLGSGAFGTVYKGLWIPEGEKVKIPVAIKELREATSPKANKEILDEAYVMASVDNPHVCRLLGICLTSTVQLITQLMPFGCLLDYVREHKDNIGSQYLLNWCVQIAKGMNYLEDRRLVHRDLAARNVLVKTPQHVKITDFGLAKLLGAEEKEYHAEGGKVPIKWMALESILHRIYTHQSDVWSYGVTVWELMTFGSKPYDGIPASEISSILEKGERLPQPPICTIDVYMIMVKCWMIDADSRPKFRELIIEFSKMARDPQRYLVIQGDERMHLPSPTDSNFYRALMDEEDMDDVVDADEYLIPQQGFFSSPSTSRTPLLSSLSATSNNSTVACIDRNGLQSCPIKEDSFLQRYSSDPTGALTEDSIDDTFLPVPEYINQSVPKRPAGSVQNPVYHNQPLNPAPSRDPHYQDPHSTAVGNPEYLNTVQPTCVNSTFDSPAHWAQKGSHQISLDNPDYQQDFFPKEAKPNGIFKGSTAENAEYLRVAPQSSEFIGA

SMILES	IC50 ([1]; IC50 WT (nM), 100 μM ATP)	IC50 [1, 6]	IC50 [2, 7]	IC50 [2, 8]	IC50 [3, 9]	IC50 [3, 10]	IC50 [4, 11]	IC50 [4, 12]	IC50 [5, 13]	IC50 [5, 14]
CC1(CO)CCN(c2cc(Nc3ccnc(-c4cnn(S(=O)(=O)C5CC5)c4)n3)ncc2C#CC2CCN(S(C)(=O)=O)C2)CC1 (stereo not drawn) [Example 401, (1-(2-((2-(1-(Cyclopropylsulfonyl)-1H-pyrazol-4-yl)pyrimidin-4-yl)amino)-5-((1-(methylsulfonyl)pyrrolidin-3-yl)ethynyl)pyridin-4-yl)-4-methylpiperidin-4-yl)methanol]	3010 nM	3.9 nM	0.6 nM	0.3 nM	11.9 nM	0.8 nM	0.4 nM	0.7 nM	0.5 nM	0.4 nM
CC1(C#Cc2cnc(Nc3ccnc(-c4cnn(S(=O)(=O)C5CC5)c4)n3)cc2N[C@H]2CC[C@@H](CO)CC2)CC1 [Example 402, ((1s,4s)-4-((2-((2-(1-(Cyclopropylsulfonyl)-1H-pyrazol-4-yl)pyrimidin-4-yl)amino)-5-((1-methylcyclopropyl)ethynyl)pyridin-4-yl)amino)cyclohexyl)methanol]	> 10000 nM	62.7 nM	8.4 nM	7.9 nM	104 nM	3.9 nM	2.6 nM	–	3.9 nM	–
CC1(C#Cc2cnc(Nc3ccnc(-c4cnn(S(=O)(=O)C5CC5)c4)n3)cc2NC[C@H]2CC[C@H](O)CC2)CC1 [Example 403, (1r,4r)-4-(((2-((2-(1-(Cyclopropylsulfonyl)-1H-pyrazol-4-yl)pyrimidin-4-yl)amino)-5-((1-methylcyclopropyl)ethynyl)pyridin-4-yl)amino)methyl)cyclohexan-1-ol]	> 10000 nM	–	140 nM	–	1920 nM	–	16.2 nM	–	50.3 nM	–
CC1(O)CCN(c2cc(Nc3ccnc(-c4cnn(S(=O)(=O)C5CC5)c4)n3)ncc2C#CC2(C)CC2)CC1 [Example 404, 1-(2-((2-(1-(Cyclopropylsulfonyl)-1H-pyrazol-4-yl)pyrimidin-4-yl)amino)-5-((1-methylcyclopropyl)ethynyl)pyridin-4-yl)-4-methylpiperidin-4-ol]	9350 nM	45.8 nM	3.6 nM	5.3 nM	55.6 nM	2.7 nM	1.7 nM	–	2.9 nM	–
CC1(C#Cc2cnc(Nc3ccnc(-c4cnn(S(=O)(=O)C5CC5)c4)n3)cc2NC[C@H]2CC[C@H](CO)CC2)CC1 [Example 405, ((1r,4r)-4-(((2-((2-(1-(Cyclopropylsulfonyl)-1H-pyrazol-4-yl)pyrimidin-4-yl)amino)-5-((1-methylcyclopropyl)ethynyl)pyridin-4-yl)amino)methyl)cyclohexyl)methanol]	> 10000 nM	–	249 nM	–	3900 nM	–	46.5 nM	–	94.2 nM	–
CN(C)CC1(C)CCN(c2cc(Nc3ccnc(-c4cnn(S(=O)(=O)C5CC5)c4)n3)ncc2C#CC2(C)CC2)CC1 [Example 406, 2-(1-(Cyclopropylsulfonyl)-1H-pyrazol-4-yl)-N-(4-(4-((dimethylamino)methyl)-4-methylpiperidin-1-yl)-5-((1-methylcyclopropyl)ethynyl)pyridin-2-yl)pyrimidin-4-amine]	> 10000 nM	35.2 nM	4.3 nM	3.3 nM	58.2 nM	2.7 nM	0.9 nM	–	1.3 nM	–
CN(C)CCC1CCN(c2cc(Nc3ccnc(-c4cnn(S(=O)(=O)C5CC5)c4)n3)ncc2C#CC2(C)CC2)CC1 [Example 407, 2-(1-(Cyclopropylsulfonyl)-1H-pyrazol-4-yl)-N-(4-(4-(2-(dimethylamino)ethyl)piperidin-1-yl)-5-((1-methylcyclopropyl)ethynyl)pyridin-2-yl)pyrimidin-4-amine]	1260 nM	4.4 nM	0.7 nM	0.6 nM	13 nM	0.8 nM	0.3 nM	–	0.4 nM	–
O=C(N1CCC(C#Cc2cnc(Nc3ccnc(-c4cnn(S(=O)(=O)C5CC5)c4)n3)cc2NC2CCC(CO)CC2)C1)C(F)(F)F (stereo not drawn) [Example 408, 1-(3-((6-((2-(1-(Cyclopropylsulfonyl)-1H-pyrazol-4-yl)pyrimidin-4-yl)amino)-4-(((1s,4s)-4-(hydroxymethyl)cyclohexyl)amino)pyridin-3-yl)ethynyl)pyrrolidin-1-yl)-2,2,2-trifluoroethan-1-one]	6570 nM	–	2.1 nM	–	26 nM	–	0.1 nM	–	0.2 nM	–
O=C(N1CCC(C#Cc2cnc(Nc3ccnc(-c4cnn(S(=O)(=O)C5CC5)c4)n3)cc2NCC2CCC(O)CC2)C1)C(F)(F)F (stereo not drawn) [Example 409, 1-(3-((6-((2-(1-(Cyclopropylsulfonyl)-1H-pyrazol-4-yl)pyrimidin-4-yl)amino)-4-((((1 r,4r)-4-hydroxycyclohexyl)methyl)amino)pyridin-3-yl)ethynyl)pyrrolidin-1-yl)-2,2,2-trifluoroethan-1-one]	> 10000 nM	–	81.3 nM	–	648 nM	–	4.3 nM	–	10.5 nM	–

Now from value to molecule:

IC50 ([1]; IC50 WT (nM), 100 μM ATP)	IC50 [1, 6]	IC50 [2, 7]	IC50 [2, 8]	IC50 [3, 9]	IC50 [3, 10]	IC50 [4, 11]	IC50 [4, 12]	IC50 [5, 13]	IC50 [5, 14]	SMILES
7420 nM	–	3.1 nM	–	29.4 nM	–	0.2 nM	–	0.6 nM	–	CC1(O)CCN(c2cc(Nc3ccnc(-c4cnn(S(=O)(=O)C5CC5)c4)n3)ncc2C#CC2CCN(C(=O)C(F)(F)F)C2)CC1 (stereo not drawn) [Example 410, 1-(3-((6-((2-(1-(Cyclopropylsulfonyl)-1H-pyrazol-4-yl)pyrimidin-4-yl)amino)-4-(4-hydroxy-4-methylpiperidin-1-yl)pyridin-3-yl)ethynyl)pyrrolidin-1-yl)-2,2,2-trifluoroethan-1-one]
> 10000 nM	–	59.8 nM	–	979 nM	–	7.3 nM	–	35.9 nM	–	O=C(N1CCC(C#Cc2cnc(Nc3ccnc(-c4cnn(S(=O)(=O)C5CC5)c4)n3)cc2NCC2CCC(CO)CC2)C1)C(F)(F)F (stereo not drawn) [Example 411, 1-(3-((6-((2-(1-(Cyclopropylsulfonyl)-1H-pyrazol-4-yl)pyrimidin-4-yl)amino)-4-((((1 r,4r)-4-(hydroxymethyl)cyclohexyl)methyl)amino)pyridin-3-yl)ethynyl)pyrrolidin-1-yl)-2,2,2-trifluoroethan-1-one]
> 10000 nM	–	3.3 nM	–	21.5 nM	–	0.3 nM	–	2.7 nM	–	CN(C)CC1(C)CCN(c2cc(Nc3ccnc(-c4cnn(S(=O)(=O)C5CC5)c4)n3)ncc2C#CC2CCN(C(=O)C(F)(F)F)C2)CC1 (stereo not drawn) [Example 412, 1-(3-((6-((2-(1-(Cyclopropylsulfonyl)-1H-pyrazol-4-yl)pyrimidin-4-yl)amino)-4-(4-((dimethylamino)methyl)-4-methylpiperidin-1-yl)pyridin-3-yl)ethynyl)pyrrolidin-1-yl)-2,2,2-trifluoroethan-1-one]
2910 nM	–	0.8 nM	–	10.3 nM	–	0.1 nM	–	1.4 nM	–	CN(C)CCC1CCN(c2cc(Nc3ccnc(-c4cnn(S(=O)(=O)C5CC5)c4)n3)ncc2C#CC2CCN(C(=O)C(F)(F)F)C2)CC1 (stereo not drawn) [Example 413, 1-(3-((6-((2-(1-(Cyclopropylsulfonyl)-1H-pyrazol-4-yl)pyrimidin-4-yl)amino)-4-(4-(2-(dimethylamino)ethyl)piperidin-1-yl)pyridin-3-yl)ethynyl)pyrrolidin-1-yl)-2,2,2-trifluoroethan-1-one]
5190 nM	–	1.8 nM	–	24.1 nM	–	0.4 nM	–	3.9 nM	–	O=C(N1CCC(C#Cc2cnc(Nc3ccnc(-c4cnn(S(=O)(=O)C5CC5)c4)n3)cc2NC2CCC(O)CC2)C1)C(F)(F)F (stereo not drawn) [Example 414, 1-(3-((6-((2-(1-(Cyclopropylsulfonyl)-1H-pyrazol-4-yl)pyrimidin-4-yl)amino)-4-(((1 s, 4s)-4-hydroxycyclohexyl)amino)pyridin-3-yl)ethynyl)pyrrolidin-1-yl)-2,2,2-trifluoroethan-1-one]
5060 nM	–	1.2 nM	–	21.6 nM	–	0.2 nM	–	1.7 nM	–	CC1(CO)CCN(c2cc(Nc3ccnc(-c4cnn(S(=O)(=O)C5CC5)c4)n3)ncc2C#CC2CCN(C(=O)C(F)(F)F)C2)CC1 (stereo not drawn) [Example 415, 1-(3-((6-((2-(1-(Cyclopropylsulfonyl)-1H-pyrazol-4-yl)pyrimidin-4-yl)amino)-4-(4-(hydroxymethyl)-4-methylpiperidin-1-yl)pyridin-3-yl)ethynyl)pyrrolidin-1-yl)-2,2,2-trifluoroethan-1-one]
> 10000 nM	84.5 nM	8.2 nM	7.2 nM	165 nM	33.6 nM	2.7 nM	2.6 nM	2.8 nM	0.9 nM	O=S(=O)(C1CC1)n1cc(-c2nccc(Nc3cc(NC4CCC(CO)CC4)c(C#CC4CCOC4C(F)(F)F)cn3)n2)cn1 [Example 416, ((1s,4s)-4-((2-((2-(1-(Cyclopropylsulfonyl)-1H-pyrazol-4-yl)pyrimidin-4-yl)amino)-5-(((2R)-2-(trifluoromethyl)tetrahydrofuran-3-yl)ethynyl)pyridin-4-yl)amino)cyclohexyl)methanol]
